In brackets after ≈: the same amount, converted by molar mass. Activity calls are given as the source filed them. No cut-off for these calls is given here.
Legend:
[1] = system: Free fatty acid receptor 1 (Homo sapiens), O14842 [A83F]; assay: Agonist activity at N-terminal FLAG tagged human FFAR1 A83F mutant transfected in African green monkey COS-7 cells assessed as accumulation of inositol phosphate by measuring fold change in potency incubated for 90 mins by TopCount NXT counter based analysis; assay type: cell-based; details: filed as agonist
[2] = target: Free fatty acid receptor 1 (Homo sapiens, UniProt O14842); assay: Agonist activity at N-terminal FLAG tagged human FFAR1 transfected in African green monkey COS-7 cells assessed as accumulation of inositol phosphate incubated for 90 mins by TopCount NXT counter based analysis; assay type: cell-based
[3] = target: T1, Free fatty acid receptor 4 (Homo sapiens, UniProt Q5NUL3); assay: Agonist activity at N-terminal FLAG tagged human FFAR4 transfected in African green monkey COS-7 cells assessed as accumulation of inositol phosphate incubated for 90 mins by TopCount NXT counter based analysis; assay type: cell-based
T1 sequence (Q5NUL3 whole entry): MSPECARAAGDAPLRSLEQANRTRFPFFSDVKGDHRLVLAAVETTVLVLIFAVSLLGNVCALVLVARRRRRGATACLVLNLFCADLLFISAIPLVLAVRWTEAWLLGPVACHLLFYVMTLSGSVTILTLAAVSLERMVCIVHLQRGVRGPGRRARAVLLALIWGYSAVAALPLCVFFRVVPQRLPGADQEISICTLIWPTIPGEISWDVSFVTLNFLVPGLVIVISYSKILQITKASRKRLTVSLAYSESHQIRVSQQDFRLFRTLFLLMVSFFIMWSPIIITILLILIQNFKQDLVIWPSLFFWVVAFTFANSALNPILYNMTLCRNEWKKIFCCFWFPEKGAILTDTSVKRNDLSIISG

[4] = target: T2, Free fatty acid receptor 4 (Homo sapiens) (UniProt Q5NUL3); assay: Agonist activity at N-terminal FLAG tagged human FFAR4 transfected in African green monkey COS-7 cells assessed as accumulation of inositol phosphate at 10 uM incubated for 90 mins by TopCount NXT counter based analysis relative to control; assay type: cell-based
T2 sequence (whole entry): T1 sequence (Q5NUL3 whole entry)

[5] = Lipophilicity, logD of the compound; assay type: physicochemical; details: octanol/water
[6] = Metabolic stability in CD-1 mouse liver S9 fraction assessed as half-life at 2 uM measured upto 40 mins in the presence of NADPH by HPLC-MS analysis; assay type: ADME, subcellular; details: s9, 40 min
[7] = Solubility of the compound in PBS buffer at pH 7.4; assay type: physicochemical
COS-7 [8] = assay: Agonist activity at N-terminal FLAG tagged human FFAR1 Y12 mutant transfected in African green monkey COS-7 cells assessed as accumulation of inositol phosphate incubated for 90 mins by TopCount NXT counter based analysis; assay type: cell-based
COS-7 [9] = assay: Agonist activity at N-terminal FLAG tagged human FFAR1 E65 mutant transfected in African green monkey COS-7 cells assessed as accumulation of inositol phosphate incubated for 90 mins by TopCount NXT counter based analysis; assay type: cell-based
COS-7 [10] = assay: Agonist activity at N-terminal FLAG tagged human FFAR1 A66 mutant transfected in African green monkey COS-7 cells assessed as accumulation of inositol phosphate incubated for 90 mins by TopCount NXT counter based analysis; assay type: cell-based
COS-7 [11] = assay: Agonist activity at N-terminal FLAG tagged human FFAR1 K259 mutant transfected in African green monkey COS-7 cells assessed as accumulation of inositol phosphate incubated for 90 mins by TopCount NXT counter based analysis; assay type: cell-based
COS-7 [12] = assay: Agonist activity at N-terminal FLAG tagged human FFAR1 L262 mutant transfected in African green monkey COS-7 cells assessed as accumulation of inositol phosphate incubated for 90 mins by TopCount NXT counter based analysis; assay type: cell-based
[13] = system: Free fatty acid receptor 1 (Homo sapiens), O14842 [S8A]; assay: Agonist activity at N-terminal FLAG tagged human FFAR1 S8A mutant transfected in African green monkey COS-7 cells assessed as accumulation of inositol phosphate by measuring fold decrease in potency incubated for 90 mins by TopCount NXT counter based analysis; assay type: cell-based; details: filed as agonist
[14] = system: Free fatty acid receptor 1 (Homo sapiens), O14842 [S8A]; assay: Agonist activity at N-terminal FLAG tagged human FFAR1 S8A mutant transfected in African green monkey COS-7 cells assessed as accumulation of inositol phosphate by measuring decrease in efficacy incubated for 90 mins by TopCount NXT counter based analysis relative to control; assay type: cell-based
[15] = system: Free fatty acid receptor 1 (Homo sapiens), O14842 [K259A]; assay: Agonist activity at N-terminal FLAG tagged human FFAR1 K259A mutant transfected in African green monkey COS-7 cells assessed as accumulation of inositol phosphate by measuring change in efficacy incubated for 90 mins by TopCount NXT counter based analysis relative to control; assay type: cell-based
[16] = system: Free fatty acid receptor 1 (Homo sapiens), O14842 [L262W]; assay: Agonist activity at N-terminal FLAG tagged human FFAR1 L262W mutant transfected in African green monkey COS-7 cells assessed as accumulation of inositol phosphate by measuring change in efficacy incubated for 90 mins by TopCount NXT counter based analysis relative to control; assay type: cell-based
[17] = system: Free fatty acid receptor 1 (Homo sapiens), O14842 [A83F]; assay: Agonist activity at N-terminal FLAG tagged human FFAR1 A83F mutant transfected in African green monkey COS-7 cells assessed as accumulation of inositol phosphate incubated for 90 mins by TopCount NXT counter based analysis; assay type: cell-based; details: filed as agonist

Chain of Free fatty acid receptor 1 (O14842 whole entry): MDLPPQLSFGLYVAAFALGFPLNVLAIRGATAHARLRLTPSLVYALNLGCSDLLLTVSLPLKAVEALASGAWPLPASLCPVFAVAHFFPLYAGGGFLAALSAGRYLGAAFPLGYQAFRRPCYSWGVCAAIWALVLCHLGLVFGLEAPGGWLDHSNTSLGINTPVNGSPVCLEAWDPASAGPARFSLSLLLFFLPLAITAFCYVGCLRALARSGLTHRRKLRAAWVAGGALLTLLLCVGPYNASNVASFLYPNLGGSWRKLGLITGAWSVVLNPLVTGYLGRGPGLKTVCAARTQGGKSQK
Chain of Free fatty acid receptor 1 (Homo sapiens), O14842 [A83F] (O14842 whole entry A83F): as the sequence (O14842 whole entry) above, with A83F counted along it
Chain of Free fatty acid receptor 1 (Homo sapiens), O14842 [S8A] (O14842 whole entry S8A): as the sequence (O14842 whole entry) above, with S8A counted along it
Chain of Free fatty acid receptor 1 (Homo sapiens), O14842 [L262W] (O14842 whole entry L262W): as the sequence (O14842 whole entry) above, with L262W counted along it
Chain of Free fatty acid receptor 1 (Homo sapiens), O14842 [K259A] (O14842 whole entry K259A): as the sequence (O14842 whole entry) above, with K259A counted along it

SMILES	EC50 [2] [nM]	EC50 [3] [nM]	logD [5]	t1/2 [6] [min]	solubility kinetic [7] [µM]	Emax [4] [%]	other results
Cc1cc(OCCCS(C)(=O)=O)cc(C)c1-c1cccc(COc2ccc3c(c2)OC[C@H]3CC(=O)O)c1	–	–	–	–	–	–	fold change (FC) [1]: 500
Cc1cc(OCc2nc(N)nc(NCCc3cccc(Cl)c3)n2)cc(N2CCCC2=O)c1	3	6	3.77	2.3	11 (≈ 4.98 µg/mL)	–	Emax ([4]; filed as agonist): 43%
Cc1ccc(Nc2nc(N)nc(COc3cccc(N4CCCC4=O)c3)n2)cc1Cl	820	590	–	–	28 (≈ 11.9 µg/mL)	–	Emax ([4]; filed as agonist): 50%
Cc1cc(OCc2nc(N)nc(NCCc3cc(Cl)ccc3Cl)n2)cc(N2CCCC2=O)c1	1	2	3.46	1.9	19 (≈ 9.26 µg/mL)	30	Activity (COS-7 [8]): inactive; Activity (COS-7 [9]): inactive; Activity (COS-7 [10]): inactive; Activity (COS-7 [11]): inactive; Activity (COS-7 [12]): inactive; fold change (FC) [13]: 10; Efficacy [14]: 35%; fold change (FC) [1]: 2
Cc1cc(OCc2nc(N)nc(NCCC3CCCCC3(F)F)n2)cc(N2CCCC2=O)c1 (configuration not stated)	–	–	3.53	0.8	55 (≈ 25.3 µg/mL)	–	–
COc1ccc(F)c(-c2ccc(COc3ccc4c(c3)[C@]3(CC4)C[C@H]3C(=O)O)cc2[C@@H]2CCCC2(C)C)c1	–	–	–	–	–	–	Efficacy [15]: -25%; Efficacy [16]: -25%; Activity [17]: Active
Cc1cc(OCc2nc(N)nc(NCC(C)c3cccc(Cl)c3)n2)cc(N2CCCC2=O)c1 (configuration not stated)	6	10	3.93	0.8	14 (≈ 6.54 µg/mL)	33	–
COC(CNc1nc(N)nc(COc2cc(C)cc(N3CCCC3=O)c2)n1)c1cccc(Cl)c1 (configuration not stated)	15	12	3.52	2	36 (≈ 17.4 µg/mL)	32	–
Cc1ccc(Nc2nc(N)nc(COc3ccc4c(C)cc(=O)oc4c3)n2)cc1Cl	140	150	–	–	< 2	–	Emax ([4]; filed as agonist): 45%
Cc1cc(OCc2nc(N)nc(NCCc3cccc(F)c3)n2)cc(N2CCCC2=O)c1	50	29	3.32	1.1	84 (≈ 36.7 µg/mL)	35	–
Cc1cc(OCc2nc(N)nc(NCCc3ccccc3N3CCOCC3)n2)cc(N2CCCC2=O)c1	–	81	2.93	0.9	119 (≈ 59.9 µg/mL)	30	–
Cc1cc(OCc2nc(N)nc(NCCc3ccccc3C(F)(F)F)n2)cc(N2CCCC2=O)c1	12	10	–	–	–	38	–
Cc1ccc(Nc2nc(N)nc(COc3cc(N4CCCC4=O)ccc3F)n2)cc1Cl	33100	13800	–	–	–	27	–
Cc1cc(OCc2nc(N)nc(NCCc3ccc(Cl)cc3Cl)n2)cc(N2CCCC2=O)c1	44	25	–	–	–	18	–
Cc1cc(OCc2nc(N)nc(NCCc3cc(F)ccc3F)n2)cc(N2CCCC2=O)c1	16	5	–	–	–	36	–
Cc1cc(OCc2nc(N)nc(NC3(Cc4cccc(Cl)c4)CC3)n2)cc(N2CCCC2=O)c1	61	–	3.82	0.7	23 (≈ 11 µg/mL)	–	–
Cc1cc(OCc2nc(N)nc(NCCc3cccc(Cl)c3Cl)n2)cc(N2CCCC2=O)c1	3	9	–	–	–	31	–
Cc1ccc(Nc2nc(N)nc(COc3cc(N4CCCC4=O)ccc3C(F)(F)F)n2)cc1Cl	20100	11900	–	–	–	–	Emax ([4]; filed as agonist): 41%
Cc1cc(OCc2nc(N)nc(NCC(c3cccc(Cl)c3)N3CCCC3)n2)cc(N2CCCC2=O)c1 (configuration not stated)	610	–	2.79	3	294 (≈ 153 µg/mL)	–	–
COc1ccc(Cl)cc1CCNc1nc(N)nc(COc2cc(C)cc(N3CCCC3=O)c2)n1	54	53	–	–	–	29	–
Cc1cc(OCc2nc(N)nc(NCCc3cccc4c3OC(F)(F)O4)n2)cc(N2CCCC2=O)c1	–	–	3.42	0.8	13 (≈ 6.48 µg/mL)	–	–
Cc1ccc(Nc2nc(N)nc(COc3cc(Cl)cc(N4CCCC4=O)c3)n2)cc1Cl	160	150	–	–	–	–	Emax ([4]; filed as agonist): 43%
Cc1cc(OCc2nc(N)nc(NCCc3ccc(C)c(Cl)c3)n2)cc(N2CCCC2=O)c1	7	8	–	–	–	32	–
Cc1cc(OCc2nc(N)nc(NCCc3ccc(C)cc3C)n2)cc(N2CCCC2=O)c1	71	93	–	–	–	37	–
COc1ccc(OCc2nc(N)nc(Nc3ccc(C)c(Cl)c3)n2)cc1N1CCCC1=O	20200	31400	–	–	–	–	Emax ([4]; filed as agonist): 53%

From ChEMBL document CHEMBL5236638, “Optimization of First-in-Class Dual-Acting FFAR1/FFAR4 Allosteric Modulators with Novel Mode of Action” (ACS Med Chem Lett, 2022)
